{"source": "patent US20210106581A1", "about": "“Treatment Of Liver Diseases” (Melior Pharmaceuticals I, Inc., priority 2018, published 2021)", "assay_type_in_all_cases": "in vivo", "key": {"[1]": {"tested_on": "male C57BL/6NCrl mice on modified high fat diet (mHFD)", "experiment": "Extended mHFD NASH mouse study, 8-week treatment (Example 2)", "from_the_text": "The modified high fat diet (mHFD) was obtained from Research Diets, Inc. (New Brunswick, N.J.) and was formulated according to Cong et al., supra. The mHFD contained 60% fat, 14% protein, and 26% carbohydrate, with total energy content of 21.0 kJ/g. The mHFD contained a low concentration of choline bicitrate a (0.6 g/kg) and DL-methionine (1.5 g/kg). Fatty acid composition of the fats (mainly from lard) in mHFD was 36% saturated fatty acids, 45% monounsaturated fatty acids, and 19% polyunsaturated fatty acids (PUFA).\nMale C57BL/6NCrl mice were obtained from Charles River Laboratories (Wilmington, Mass.). Mice were maintained in microisolator cages, in groups of no more than 4 animals per cage, and on a 12-hour light cycle. Food and water were provided ad libitum. On the last day of the study, all mice were sacrificed by cervical dislocation after a 4-hour food deprivation. Livers were rapidly dissected and part of each liver was cut and fixed in formaldehyde saline (4%) solution for histological analysis. The rest of the liver was snap frozen in liquid nitrogen, and stored at −70° C. until use.\nMice were acquired at 3-4 weeks of age (body weight of about 11-12 g). Mice were fed a standard chow (Control group) or mHFD (Model group) for 22 weeks. […] At week-22, based on body weight consideration, the mHFD-fed mice were screened and distributed in a balanced fashion into 3 groups for the compound treatment study (Table 1).\nDuring the 8-week drug treatment phase, all animals (except for standard-chow controls) remain on the mHFD diet. During the treatment period, the summary of measurement schedule is as below: • 1) Body weight (BW) was taken once a week. • 2) Terminal blood and whole Liver were collected. • 3) Hepatic histology (NAS score) was assessed.\nLivers were removed at necropsy and fixed in 10% buffered formalin. Sections were processed to paraffin by routine histological methods and 4 μm sections were stained with hematoxylin and eosin. Sections were evaluated under light microscopy by a board-certified veterinary pathologist for identification of proliferative lesions as well as severity scoring of lesions associated with steatohepatitis. The pathologist was blinded to the treatment status. Steatohepatitis parameters were scored and classified according to a standardized histological scoring system for NASH described by Kleiner et al., Hepatology, 2005, 41, 1313-1321. In brief, individual livers were evaluated for steatosis, lobular inflammation, and ballooning degeneration of hepatocytes, and given a score of (03) for steatosis and inflammation, and (02) for ballooning degeneration, using previously defined criteria (see below). An NAFLD activity score (NAS) was obtained by summing the individual parameter scores.\nSteatosis Location: 0: Predominantly zone 3 (centrilobular); 1: Predominantly zone 1 (periportal); 2: Azonal (defined as when the pattern could not be fit into one of the other categories or marked architectural change); and 3: Panacinar (defined as involving all zones of the liver equally).\nInflammation: 0: No foci; 1: <2 foci per 200× field; 2: 2-4 foci/200× field; and 3: >4 foci/200× field.\nBallooning Degeneration: 0: None; 1: Few balloon cells; and 2: Many cells/prominent ballooning.\nData are expressed as the average±SEM at each week and analyzed by Unpaired T-tests as applicable using Prism® software (GraphPad Software, Inc., Las Jolla, Calif.). A p-value of less than 0.05 indicates a significant difference between treatment groups."}, "[2]": {"tested_on": "male BALB/c mice with CCl4-induced liver fibrosis", "experiment": "CCl4-induced liver fibrosis mouse model (Example 3)", "experimental": "In the following study, 6 to 7 week old male BALB/c mice (25-30 g) were randomized based on body weight after 7-day of CCl4 injections (3 times). Mice were fed standard rodent chow and water ad libitum. The mice were divided into 4 groups, with 12 mice per group. The mice were administered a dose volume of 10 mL/kg (MLR-1023), 2.5 mL/kg (CCl4), each in a formulation of 20% HBPCD/saline and corn oil intraperitoneally (i.p.). The dose level of MLR-1023 was 30 and 100 mg per kg, and the dose level of CCl4 was 5%. The dose frequency of MLR-1023 was once daily (QD), and the dose frequency of CCl4 was 3 times a week (Monday, Wednesday, and Friday). The study duration was 28 days, with MLR-1023 treatment started from day 8 to day 28. CCl4 was obtained from Sigma-Aldrich (St. Louis, Mo.). A commercial kit was used for analyzing liver hydroxyproline content (BioVision, Inc.; Milpitas, Calif.). ALT and AST kits were purchased from BIOO Science (Austin, Tex.). All other reagents used in the study were of analytical grade. Male BALB/c mice were obtained from Charles River Laboratories (Wilmington, Mass.). On the last day of the study all mice were sacrificed by cervical dislocation. Blood/serum samples were collected for the assays of liver enzymes (ALT and AST). Livers were rapidly dissected and part of each liver was cut and fixed in formaldehyde saline (4%) solution for histological analysis; the remainder of the liver was snap frozen in liquid nitrogen, and stored at −70° C. until use. Starting on Day 1, animals were administered i.p. with 5% CCl4 or corn oil (vehicle for CCl4 solution) three days per week (Monday, Wednesday, and Friday) for 4 weeks. CCl4 was formulated as a […] with the dose volume of 2.5 mL/kg, and was freshly formulated on a weekly basis. Animals were weighed weekly. Test compounds and vehicle administrations were performed from Day 8 to Day 28. At the end of study, blood was drawn through retro-orbital punctures for serum collection. The whole liver was removed. One lobe was placed in a tube containing 10% formalin for histopathology, the remainder of the liver lobes were collected and snap frozen for further hydroxyproline assay. Homogenized liver samples were evaluated for hydroxyproline content to assess hepatic collagen levels. Serum was separated by centrifugation at 4° C. and analyzed immediately or stored at −70° C. Serum ALT and AST levels were determined by colorimetric method and using procedures described by the kit manufacturers. Hepatic hydroxyproline content was measured by colorimetric method and expressed as μg/mg wet liver weight. Livers were removed at necropsy and fixed in 10% buffered formalin. Sections of liver were processed routinely, sectioned at approximately 4 microns, and stained with hematoxylin and eosin (H&E) or picrosirius red (PSR). Glass slides were evaluated using light microscopy by a board-certified veterinary/toxicology pathologist in a blind manner. Two sections from each animal were examined. Five animals from each group were randomly chosen for histology analysis. The severity of histologic findings was scored using the Society of Toxicologic Pathology best practices (1=minimal, 2=mild, 3=moderate, 4=marked, 5=Severe). Fibrosis value is corresponding to the fraction of centrilobular areas affected by fibrosis (1=about <10%, 2=about 11-30%, 3=about […], 4=about […], 5=about 71-100%). Liver fibrosis is characterized by increased numbers of fibroblasts and collagen fibers in liver sinusoids that partially, or completely, bridged centrilobular areas. PSR staining severity generally correlated with the mean severity of fibrosis. Overall increased collagen deposition and bridging fibrosis are identified with PSR stain. […]"}, "[3]": {"tested_on": "male C57BL/6 mice on modified high fat diet (mHFD)", "experiment": "Modified high fat diet (mHFD) mouse model, serum and liver triglycerides (Example 1)", "settings": "30 mg/kg or 100 mg/kg i.p. once daily, 8 weeks", "experimental": "The animal model was performed essentially as described in Cong et al., Life Sciences, 2008, 82, 983-990. Briefly, male C57BL/6 mice at 6 weeks of age were fed, ad libitum, a modified high fat diet (mHFD) provided by Research Diets, and described in Cong et al. One group of control animals (n=11) remained on standard diet. All animals remained on their respective diets for 23 weeks (29 weeks of age). At that time, animals continued to remain on their respective diets and treatment regimens began. The group of animals on standard diet and one group of animals on mHFD (n=9) received vehicle administered by intraperitoneal injection, once daily. Two additional groups of animals on mHFD (n=8) received Compound 102 administration by intraperitoneal injection, once daily at either 30 mg/kg or 100 mg/kg. Compound 102 was formulated in, and the vehicle used was, 20% hydroxypropyl beta cyclodextrin (HPBCD). Treatment regimen continued for an additional 8 weeks while the animals remained on their respective diets. At the end of 8 weeks of treatment, animals were fasted for 6 hours. […] Serum triglycerides and liver triglyceride were measured from the respective samples using Triglyceride assay kit (Wako Diagnostics, Richmond, Va.; Cat No 461-8992). Data were averaged and are expressed as the average SEM. Data were analyzed by two-way repeated measures ANOVA followed by a Dunnett's post hoc test. […]"}, "[4]": {"settings": "both treatments (30 and 100 mpk), H&E, FIG. 11"}}, "note": "“Also recorded” adds a separate entry of the source.", "data": [{"smiles": "Cc1cccc(Oc2cnc(=O)[nH]c2)c1", "note": "[MLR-1023, tolimidone]", "values": [{"measurement": "NAFLD activity score (NAS)", "setting": "[1]; 30 mpk (30 mg/kg) IP, vs MD-vehicle, FIG. 6", "result": "significantly reduced"}, {"measurement": "body weight", "setting": "[1]; 30 mpk IP, 8-week treatment, vs MD-vehicle, FIG. 3", "result": "significantly reduced"}, {"measurement": "liver weight", "setting": "[1]; 30 mpk IP, 8-week treatment, vs MD-vehicle, FIG. 4", "result": "significantly reduced"}, {"measurement": "TG content in liver", "setting": "[1]; 30 mpk IP, vs MD-vehicle, FIG. 2", "result": "significantly reduced"}, {"measurement": "body weight", "setting": "[1]; 100 mpk IP, 8-week treatment, vs MD-vehicle, FIG. 3", "result": "trend in reduction (p=0.056)"}, {"measurement": "liver weight", "setting": "[1]; 100 mpk IP, 8-week treatment, vs MD-vehicle, FIG. 4", "result": "significantly reduced"}, {"measurement": "hepatocellular ballooning", "setting": "[1]; 100 mpk, FIG. 7", "result": "significantly reduced"}, {"measurement": "body weight", "setting": "[1]; FIG. 3 legend, dose not stated", "result": "significantly reduced"}, {"measurement": "liver weight", "setting": "[1]; FIG. 4 legend, dose not stated", "result": "significantly reduced"}, {"measurement": "hepatocellular ballooning (histology)", "setting": "[1]; dose not stated, FIGS. 7, 8A, 8B", "result": "reduced amount"}, {"measurement": "steatosis (histology)", "setting": "[1]; dose not stated, FIGS. 8A, 8B", "result": "reduced"}, {"measurement": "CCl4-induced collagen deposition", "setting": "[2]; 100 mg per kg, 21-day treatment", "result": "significantly reduced"}, {"measurement": "fibrosis percentage", "setting": "[2]; 100 mg per kg, 21-day treatment, PSR", "result": "reduced"}, {"measurement": "scores of hepatic inflammation", "setting": "[2]; 100 mg per kg, H&E, vs CCl4-vehicle, FIG. 12", "result": "reduced"}, {"measurement": "CCl4-induced increase of liver enzymes, especially AST", "setting": "[2]; 21-day treatment, summary statement", "result": "mild improvement; also recorded: mild effects"}, {"measurement": "serum AST levels", "setting": "[2]; 30 and 100 mg per kg i.p. QD day 8-28, vs CCl4-vehicle, dose-dependent manner, FIG. 9", "result": "trended towards improving"}, {"measurement": "hepatic hydroxyproline levels", "setting": "[2]; 30 and 100 mg per kg i.p. QD day 8-28, vs CCl4-vehicle, dose-dependent manner, FIG. 10", "result": "significantly reduced"}, {"measurement": "serum ALT levels", "setting": "[2]; 30 and 100 mg per kg i.p. QD day 8-28, vs CCl4-vehicle, FIG. 9", "result": "did not significantly affect"}, {"measurement": "scores of hepatic necrosis/mineralization", "setting": "[2]; 30 and 100 mg per kg, H&E, vs CCl4-vehicle, FIG. 12", "result": "trended towards reducing; also recorded: reduced"}, {"measurement": "inflammation (pathologist's general assessment)", "setting": "[2]; [4]", "result": "still present"}, {"measurement": "necrosis (pathologist's general assessment)", "setting": "[2]; [4]", "result": "dose-related effect"}, {"measurement": "fibrosis (pathologist's general assessment)", "setting": "[2]; both treatments (30 and 100 mpk), PSR, FIG. 11", "result": "dose-related effect"}, {"measurement": "circulating serum triglyceride levels", "setting": "[3]; 6 h fasted, FIG. 1", "result": "significantly reduced"}, {"measurement": "accumulation of triglycerides in the liver", "setting": "[3]; FIG. 2", "result": "significantly reduced"}]}]}
